Source: ChEMBL document CHEMBL4834431, “Design of Dimeric Bile Acid Derivatives as Potent and Selective Human NTCP Inhibitors” (J Med Chem, 2021)
Activity calls are given as the source filed them. No cut-off for these calls is given here.

What was measured:
[1] = molecular target: T1, Hepatic sodium/bile acid cotransporter (Homo sapiens, UniProt Q14973); assay: Inhibition of human NTCP-mediated [3H]-TCA uptake expressed in human HepG2 cells at 2 uM; assay type: cell-based; settings: hepg2, 2 µM
T1 sequence (Q14973 whole entry): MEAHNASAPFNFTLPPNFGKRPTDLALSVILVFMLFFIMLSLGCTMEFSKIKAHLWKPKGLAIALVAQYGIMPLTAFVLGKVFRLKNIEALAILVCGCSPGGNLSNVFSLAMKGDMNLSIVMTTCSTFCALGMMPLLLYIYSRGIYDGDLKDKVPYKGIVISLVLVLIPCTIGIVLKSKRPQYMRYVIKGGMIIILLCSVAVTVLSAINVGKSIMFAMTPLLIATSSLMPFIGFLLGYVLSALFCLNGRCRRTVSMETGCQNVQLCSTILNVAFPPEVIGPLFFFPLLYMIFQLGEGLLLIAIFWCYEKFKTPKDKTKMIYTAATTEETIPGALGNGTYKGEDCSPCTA

HepG2 [2] = assay: Cytotoxicity against human HepG2 cells expressing NTCP assessed as reduction in cell viability at 10 uM after 48 hrs by alamar blue assay; assay type: cell-based; settings: hepg2, 48 h
Hepatitis delta virus = assay: Antiviral activity against HDV infected in human HepG2-NTCP cells assessed as reduction in intranuclear accumulation of HDV delta antigen at 5 uM incubated for 24 hrs followed by replacement with fresh medium and measured at day 5 post infection by DAPI staining based confocal microscopic analysis (reference value: 12.1 %); assay type: functional; set-up: scale not given: the % may be the effect or the level left
Hepatocyte = assay: Cytotoxicity against primary tupaia hepatocytes expressing NTCP assessed as reduction in cell viability at 100 uM after 48 hrs by Cell-Titer Glo assay; assay type: cell-based; settings: scandentia
HepG2 [3] = assay: Effect on NTCP surface expression in human HepG2-NTCP cells assessed as reduction in NTCP surface expression level after 2 hrs by immunostaining based assay; assay type: functional, cell-based
Hepatitis B virus [4] = assay: Antiviral activity against HBV infected in human HepG2-NTCP cells assessed as reduction in HBeAg secretion at 1 uM pre-infected with virus followed by compound addition by ELISA; assay type: functional, organism-based
[5] = molecular target: T1, Hepatic sodium/bile acid cotransporter; assay: Inhibition of human NTCP-mediated [3H]-Estrone sulfate uptake expressed in human HepG2 cells at 2 uM; assay type: cell-based; settings: hepg2, 2 µM
[6] = molecular target: T1, Hepatic sodium/bile acid cotransporter; assay: Inhibition of FITC-labeled HBV Pre-S1 polypeptide binding to human NTCP expressed in HepG2 cells after 2 to 3 hrs by confocal microscopic analysis; assay type: cell-based; settings: time 2-3 hrs
Hepatitis B virus [7] = assay: Antiviral activity against HBV infected in human HepG2-NTCP cells assessed as reduction in HBeAg secretion preincubated for 2 hrs followed by viral infection by ELISA; assay type: functional, organism-based
[8] = molecular target: T1, Hepatic sodium/bile acid cotransporter; assay: Inhibition of human NTCP-mediated NQL-065 uptake expressed in human HepG2 cells incubated for 30 mins; assay type: cell-based; settings: hepg2, 0.5 h
Hepatitis B virus [9] = assay: Antiviral activity against HBV infected in human HepG2-NTCP cells assessed as reduction in intracellular accumulation of HBsAg at 1 uM by immunostaining based fluorescence microscopic analysis; assay type: functional, organism-based
Hepatitis B virus [10] = assay: Antiviral activity against HBV infected in human HepG2-NTCP cells assessed as reduction in HBeAg secretion at 111 to 1000 nM incubated for 24 hrs followed by replacement with fresh medium and measured at day 5 post infection by ELISA; assay type: functional, organism-based; settings: dose 111-1000 nM
Hepatitis B virus [11] = assay: Antiviral activity against HBV infected in human HepG2-NTCP cells assessed as reduction in HBeAg secretion at 1 uM preincubated with compound followed by viral infection by ELISA; assay type: functional, organism-based
[12] = molecular target: T1, Hepatic sodium/bile acid cotransporter; assay: Inhibition of human NTCP-mediated NQL-064 uptake expressed in human HepG2 cells incubated for 30 mins; assay type: cell-based; settings: hepg2, 0.5 h
[13] = molecular target: T2, Solute carrier organic anion transporter family member 1B1 (Homo sapiens, UniProt Q9Y6L6); assay: Inhibition of human OATP1B1-mediated [3H]-Estrone sulfate uptake expressed in human HepG2 cells at 2 uM; assay type: cell-based; settings: hepg2, 2 µM
T2 sequence (Q9Y6L6 whole entry): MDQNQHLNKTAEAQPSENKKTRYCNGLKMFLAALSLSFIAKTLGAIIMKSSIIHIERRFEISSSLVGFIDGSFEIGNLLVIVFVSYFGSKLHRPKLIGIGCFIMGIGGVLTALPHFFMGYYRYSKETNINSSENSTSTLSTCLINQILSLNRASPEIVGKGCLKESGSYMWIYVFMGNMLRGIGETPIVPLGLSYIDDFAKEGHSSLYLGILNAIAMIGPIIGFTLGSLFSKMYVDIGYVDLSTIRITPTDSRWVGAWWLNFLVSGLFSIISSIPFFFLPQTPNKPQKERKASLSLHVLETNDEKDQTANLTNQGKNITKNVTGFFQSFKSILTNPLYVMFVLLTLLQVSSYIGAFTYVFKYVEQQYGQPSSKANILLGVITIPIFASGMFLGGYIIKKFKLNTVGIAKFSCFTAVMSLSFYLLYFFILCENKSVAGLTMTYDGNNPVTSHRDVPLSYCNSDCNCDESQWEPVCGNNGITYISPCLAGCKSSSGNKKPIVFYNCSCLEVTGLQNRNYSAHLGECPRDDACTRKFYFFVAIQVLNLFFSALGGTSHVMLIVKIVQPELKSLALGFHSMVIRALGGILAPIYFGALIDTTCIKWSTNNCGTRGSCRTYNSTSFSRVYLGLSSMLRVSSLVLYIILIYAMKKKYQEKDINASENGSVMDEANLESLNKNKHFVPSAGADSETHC

Hepatitis B virus [14] = assay: Antiviral activity against HBV infected in human HepG2-NTCP cells assessed as reduction in intracellular accumulation of HBcAg at 1 uM by immunostaining based fluorescence microscopic analysis; assay type: functional, organism-based
Hepatitis B virus [15] = assay: Antiviral activity against HBV infected in human HepG2-NTCP cells assessed as reduction in intracellular HBV RNA level at 1 uM by qPCR analysis; assay type: functional, organism-based
Hepatitis B virus [16] = assay: Antiviral activity against HBV infected in human HepG2-NTCP cells assessed as reduction in HBeAg secretion at 1 uM compound added along with viral infection by ELISA; assay type: functional, organism-based
[17] = molecular target: T3, Ileal sodium/bile acid cotransporter (Homo sapiens, UniProt Q12908); assay: Inhibition of human ASBT-mediated [3H]-TCA uptake expressed in human HepG2 cells at 2 uM; assay type: cell-based; settings: hepg2, 2 µM
T3 sequence (Q12908 whole entry): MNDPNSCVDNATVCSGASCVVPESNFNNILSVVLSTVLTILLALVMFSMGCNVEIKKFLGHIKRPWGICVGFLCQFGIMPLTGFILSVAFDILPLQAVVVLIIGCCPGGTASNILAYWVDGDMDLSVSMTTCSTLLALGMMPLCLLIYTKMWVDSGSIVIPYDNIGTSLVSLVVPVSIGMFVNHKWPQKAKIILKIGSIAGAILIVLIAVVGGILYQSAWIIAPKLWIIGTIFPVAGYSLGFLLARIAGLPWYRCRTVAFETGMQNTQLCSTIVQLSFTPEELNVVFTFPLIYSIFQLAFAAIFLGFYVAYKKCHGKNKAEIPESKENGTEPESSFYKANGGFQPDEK

Hepatitis B virus [18] = assay: Antiviral activity against HBV infected in human HepG2-NTCP cells assessed as reduction in HBeAg secretion incubated for 24 hrs followed replacement with fresh medium and measured at day 5 post infection by ELISA; assay type: functional, organism-based
[19] = molecular target: T1, Hepatic sodium/bile acid cotransporter; assay: Inhibition of human NTCP-mediated [3H]-TCA uptake expressed in human HepG2 cells pretreated for 2 hrs followed by [3H]-TCA addition in absence of FBS; assay type: cell-based

SMILES: C[C@H](CCC(=O)NCCS(=O)(=O)O)[C@H]1CC[C@H]2[C@@H]3[C@@H](O)C[C@@H]4C[C@H](OC(=O)CCCC(=O)O[C@@H]5CC[C@@]6(C)[C@@H](C5)C[C@H](O)[C@@H]5[C@@H]6CC[C@]6(C)[C@@H]([C@H](C)CCC(=O)NCCS(=O)(=O)O)CC[C@@H]56)CC[C@]4(C)[C@H]3CC[C@]12C
- inhibition (INH) [1]: Active
- Activity (HepG2 [2]): Non-Toxic
- Activity (Hepatitis delta virus): 2.8%
- Activity (Hepatocyte): Non-Toxic
- Activity (HepG2 [3]): inactive
- Activity (Hepatitis B virus [4]): inactive
- inhibition (INH) [5]: Active
- inhibition (INH) [6]: Active
- Activity (Hepatitis B virus [7]): inactive
- inhibition (INH) [8]: Active
- Activity (Hepatitis B virus [9]): Active
- Activity (Hepatitis B virus [10]): Active
- Activity (Hepatitis B virus [11]): Active
- inhibition (INH) [12]: Active
- inhibition (INH) [13]: Not Active
- Activity (Hepatitis B virus [14]): Active
- Activity (Hepatitis B virus [15]): Active
- Activity (Hepatitis B virus [16]): Active
- inhibition (INH) [17]: Not Active
- IC50 (Hepatitis B virus [18]): 65 nM

SMILES: C[C@@H]1CCC(=O)NCCNC(=O)CC[C@@H](C)[C@H]2CC[C@H]3[C@@H]4[C@@H](O)C[C@@H]5C[C@@H](CC[C@]5(C)[C@H]4CC[C@]23C)NC(=O)CCCC(=O)N[C@@H]2CC[C@@]3(C)[C@@H](C2)C[C@H](O)[C@@H]2[C@@H]3CC[C@]3(C)[C@@H]1CC[C@@H]23
- inhibition (INH) [1]: Active
- Activity (HepG2 [2]): Non-Toxic
- Activity (Hepatitis delta virus): 2.9%
- Activity (Hepatocyte): Non-Toxic
- Activity (HepG2 [3]): inactive
- Activity (Hepatitis B virus [4]): inactive
- inhibition (INH) [5]: Active
- inhibition (INH) [6]: Active
- Activity (Hepatitis B virus [9]): Active
- Activity (Hepatitis B virus [10]): Active
- Activity (Hepatitis B virus [11]): Active
- inhibition (INH) [13]: Not Active
- Activity (Hepatitis B virus [14]): Active
- Activity (Hepatitis B virus [15]): Active
- Activity (Hepatitis B virus [16]): Active
- inhibition (INH) [17]: Not Active
- IC50 (Hepatitis B virus [18]): 100 nM

SMILES: C[C@H](CCC(=O)NCCS(=O)(=O)O)[C@H]1CC[C@H]2[C@@H]3[C@@H](O)C[C@@H]4CC(C5CC[C@@]6(C)[C@@H](C5)C[C@H](O)[C@@H]5[C@@H]6CC[C@]6(C)[C@@H]([C@H](C)CCC(=O)NCCS(=O)(=O)O)CC[C@@H]56)CC[C@]4(C)[C@H]3CC[C@]12C (some centres not stated)
- IC50 (Hepatitis B virus [18]): > 10000 nM

SMILES: C[C@H](CCC(=O)NCCS(=O)(=O)O)[C@H]1CC[C@H]2[C@@H]3[C@@H](O)C[C@@H]4C[C@H](OCC#CC#CCO[C@@H]5CC[C@@]6(C)[C@@H](C5)C[C@H](O)[C@@H]5[C@@H]6CC[C@]6(C)[C@@H]([C@H](C)CCC(=O)NCCS(=O)(=O)O)CC[C@@H]56)CC[C@]4(C)[C@H]3CC[C@]12C
- IC50 (Hepatitis B virus [18]): 1870 nM

SMILES: C[C@H](CCC(=O)O)[C@H]1CC[C@H]2[C@@H]3[C@@H](O)C[C@@H]4C[C@H](OCCCCCO[C@@H]5CC[C@@]6(C)[C@@H](C5)C[C@H](O)[C@@H]5[C@@H]6CC[C@]6(C)[C@@H]([C@H](C)CCC(=O)NCCS(=O)(=O)O)CC[C@@H]56)CC[C@]4(C)[C@H]3CC[C@]12C
- IC50 (Hepatitis B virus [18]): 935 nM

SMILES: C[C@H](CCCOC(=O)CC[C@@H](C)[C@H]1CC[C@H]2[C@@H]3[C@@H](O)C[C@@H]4C[C@H](O)CC[C@]4(C)[C@H]3CC[C@]12C)[C@H]1CC[C@H]2[C@@H]3[C@@H](O)C[C@@H]4C[C@H](O)CC[C@]4(C)[C@H]3CC[C@]12C
- IC50 (Hepatitis B virus [18]): 2700 nM

SMILES: C[C@@H]1CCC(=O)OCCOC(=O)CC[C@@H](C)[C@H]2CC[C@H]3[C@@H]4[C@@H](O)C[C@@H]5C[C@@H](CC[C@]5(C)[C@H]4CC[C@]23C)NC(=O)CCCC(=O)N[C@@H]2CC[C@@]3(C)[C@@H](C2)C[C@H](O)[C@@H]2[C@@H]3CC[C@]3(C)[C@@H]1CC[C@@H]23
- IC50 (Hepatitis B virus [18]): 185 nM

SMILES: C[C@@H]1CCC(=O)NCCNC(=O)CC[C@@H](C)[C@H]2CC[C@H]3[C@@H]4[C@@H](O)C[C@@H]5C[C@@H](CC[C@]5(C)[C@H]4CC[C@]23C)n2cc(nn2)CO[C@@H]2CC[C@@]3(C)[C@@H](C2)C[C@H](O)[C@@H]2[C@@H]3CC[C@]3(C)[C@@H]1CC[C@@H]23
- IC50 [19]: 37.5 nM
- IC50 (Hepatitis B virus [18]): 81 nM

SMILES: C[C@@H]1CCC(=O)NCCCCCCNC(=O)CC[C@@H](C)[C@H]2CC[C@H]3[C@@H]4[C@@H](O)C[C@@H]5CC[C@@H](C[C@]5(C)[C@H]4CC[C@]23C)n2cc(nn2)CO[C@H]2CC[C@H]3C[C@H](O)[C@@H]4[C@H](CC[C@]5(C)[C@@H]1CC[C@@H]45)[C@@]3(C)C2
- IC50 (Hepatitis B virus [18]): 210 nM

SMILES: C[C@H](CCC(=O)NCCS(=O)(=O)O)[C@H]1CC[C@H]2[C@@H]3[C@@H](O)C[C@@H]4C[C@H](OC(=O)CCCCCC(=O)O[C@@H]5CC[C@@]6(C)[C@@H](C5)C[C@H](O)[C@@H]5[C@@H]6CC[C@]6(C)[C@@H]([C@H](C)CCC(=O)NCCS(=O)(=O)O)CC[C@@H]56)CC[C@]4(C)[C@H]3CC[C@]12C
- IC50 (Hepatitis B virus [18]): 683 nM

SMILES: C[C@H](CCC(=O)NCCS(=O)(=O)O)[C@H]1CC[C@H]2[C@@H]3[C@@H](O)C[C@@H]4CC(NC(=O)CC(=O)NC5CC[C@@]6(C)[C@@H](C5)C[C@H](O)[C@@H]5[C@@H]6CC[C@]6(C)[C@@H]([C@H](C)CCC(=O)NCCS(=O)(=O)O)CC[C@@H]56)CC[C@]4(C)[C@H]3CC[C@]12C (some centres not stated)
- IC50 (Hepatitis B virus [18]): 3570 nM
